{"source": "patent US20040018562A1", "about": "“Receptor detection” (priority 2002, published 2004)", "key": {"[1]": {"test_system": "membrane protein from CHO-M1", "test": "Binding of enzyme donor-GTP gamma-S conjugate to membrane protein (open/close readings)", "conditions": "1 hr", "method": "20 ul of membrane protein (10 ug from CHO-M1) in a binding buffer (50 mM HEPES, 20 mM NaCl, 10 mM MgCl2, with 1 mM DTT or 0.01% CHAPS) was incubated with 10 ul of enzyme donor-GTP gamma-S conjugate at various concentrations for 60 minutes at ambient temperature. 10 ul of enzyme acceptor (0.18 uM) and 15 ul of the chemiluminescent reagent, Galacton Star with Emerald plus (Applied Biosystems, Foster city, Calif.) added and the microtiter plate read on the Lumicount (Packard, Meridien, Conn.). The readings are tabulated below with ED46 mer used as control. Open and Close refer to free and bound enzyme donor conjugate to enzyme acceptor. Percentage inhibition is calculated by (open-close)/open readings."}, "[2]": {"test_system": "membrane protein from CHO-M1", "test": "Modulation of enzyme donor-GTP gamma-S conjugate inhibition by GTP gamma-S", "type": "binding", "conditions": "1 hr; for % I: absence of GTP-gamma-S; for GTP-r-S (reading): membrane preincubated with GTP gamma-S", "method": "In order to test if the inhibition was capable of being modulated. The experiments were performed by incubating the membrane preparation with GTPgamma-S (10 ul of 10 uM). Higher concentrations of enzyme donor together with another detergent saponin were tried to enhance signal and minimize non-specific binding.\n10 ul of membrane protein (10 ug from CHO-M1) in a binding buffer (50 mM HEPES, 20 mM NaCl, 10 mM MgCl2, with 0.01% CHAPS or 0.01% saponin) was incubated with 10 ul of GTP gamma-S for 30 minutes at room temperature 10 ul of the enzyme donor conjugate at various concentrations was added and the mixture incubated for 60 minutes at ambient temperature. 10 ul of enzyme acceptor (0.45 uM) and 15 ul of the chemiluminescent reagent, Galacton Star with Emerald plus (Applied Biosystems, Foster city, Calif.) added and the microtiter plate read on the Lumicount (Packard, Meridien, Conn.). The readings are tabulated below with ED46 mer used as control. Open and close refer to free and bound enzyme donor conjugate to enzyme acceptor. Percentage inhibition is calculated by (open-close)/open readings and is in the absence of GTP-gamma-S."}, "[3]": {"conditions": "Buffer with 0.01% CHAPS, 0.5 nM"}, "[4]": {"conditions": "Buffer with 0.01% Saponin, 0.5 nM"}, "[5]": {"conditions": "Buffer with 0.01% Saponin, 5 nM"}, "[6]": {"conditions": "Buffer with 0.01% Saponin, 10 nM"}, "[7]": {"conditions": "Buffer with 0.01% Saponin, 25 nM"}, "[8]": {"conditions": "Buffer with 0.01% Saponin, 50 nM"}}, "data": [{"sequence": "SLAVVLQRRDWENPGVTQLNKLAAHPPFASWRNSEEARTDCPSQQL [45+1 mer, 46 mer enzyme donor fragment]", "values": [{"measurement": "% I", "setting": "[1]; Binding buffer wCHAPS, 0.1 nM", "value": 10.0, "unit": "%"}, {"measurement": "close", "setting": "[1]; Binding buffer wCHAPS, 0.1 nM", "value": 1706}, {"measurement": "open", "setting": "[1]; Binding buffer wCHAPS, 0.1 nM", "value": 1895}, {"measurement": "% I", "setting": "[1]; Binding buffer wCHAPS, 0.5 nM", "value": 3.9, "unit": "%"}, {"measurement": "close", "setting": "[1]; Binding buffer wCHAPS, 0.5 nM", "value": 1846}, {"measurement": "open", "setting": "[1]; Binding buffer wCHAPS, 0.5 nM", "value": 1921}, {"measurement": "% I", "setting": "[1]; Binding buffer wCHAPS, 5 nM", "value": 1.7, "unit": "%"}, {"measurement": "close", "setting": "[1]; Binding buffer wCHAPS, 5 nM", "value": 3383}, {"measurement": "open", "setting": "[1]; Binding buffer wCHAPS, 5 nM", "value": 3442}, {"measurement": "% I", "setting": "[1]; Binding buffer wCHAPS, 10 nM", "value": 6.0, "unit": "%"}, {"measurement": "close", "setting": "[1]; Binding buffer wCHAPS, 10 nM", "value": 5017}, {"measurement": "open", "setting": "[1]; Binding buffer wCHAPS, 10 nM", "value": 5339}, {"measurement": "% I", "setting": "[1]; Binding buffer wDTT, 0.1 nM", "value": 16.8, "unit": "%"}, {"measurement": "close", "setting": "[1]; Binding buffer wDTT, 0.1 nM", "value": 1357}, {"measurement": "open", "setting": "[1]; Binding buffer wDTT, 0.1 nM", "value": 1632}, {"measurement": "% I", "setting": "[1]; Binding buffer wDTT, 0.5 nM", "value": 15.2, "unit": "%"}, {"measurement": "close", "setting": "[1]; Binding buffer wDTT, 0.5 nM", "value": 1338}, {"measurement": "open", "setting": "[1]; Binding buffer wDTT, 0.5 nM", "value": 1579}, {"measurement": "% I", "setting": "[1]; Binding buffer wDTT, 5 nM", "value": 6.8, "unit": "%"}, {"measurement": "close", "setting": "[1]; Binding buffer wDTT, 5 nM", "value": 2372}, {"measurement": "open", "setting": "[1]; Binding buffer wDTT, 5 nM", "value": 2544}, {"measurement": "% I", "setting": "[1]; Binding buffer wDTT, 10 nM", "value": 12.6, "unit": "%"}, {"measurement": "close", "setting": "[1]; Binding buffer wDTT, 10 nM", "value": 3502}, {"measurement": "open", "setting": "[1]; Binding buffer wDTT, 10 nM", "value": 4006}, {"measurement": "% I", "setting": "[1]; Binding buffer, 0.1 nM", "value": 5.8, "unit": "%"}, {"measurement": "close", "setting": "[1]; Binding buffer, 0.1 nM", "value": 1773}, {"measurement": "open", "setting": "[1]; Binding buffer, 0.1 nM", "value": 1882}, {"measurement": "% I", "setting": "[1]; Binding buffer, 0.5 nM", "value": "−2.3", "unit": "%"}, {"measurement": "close", "setting": "[1]; Binding buffer, 0.5 nM", "value": 1940}, {"measurement": "open", "setting": "[1]; Binding buffer, 0.5 nM", "value": 1896}, {"measurement": "% I", "setting": "[1]; Binding buffer, 5 nM", "value": "−1.1", "unit": "%"}, {"measurement": "close", "setting": "[1]; Binding buffer, 5 nM", "value": 2952}, {"measurement": "open", "setting": "[1]; Binding buffer, 5 nM", "value": 2921}, {"measurement": "% I", "setting": "[1]; Binding buffer, 10 nM", "value": 6.7, "unit": "%"}, {"measurement": "close", "setting": "[1]; Binding buffer, 10 nM", "value": 4176}, {"measurement": "open", "setting": "[1]; Binding buffer, 10 nM", "value": 4474}, {"measurement": "% M", "setting": "[2]; [3]", "value": "−1.6", "unit": "%"}, {"measurement": "close", "setting": "[2]; [3]", "value": 353}, {"measurement": "open", "setting": "[2]; [3]", "value": 322}, {"measurement": "% I", "setting": "[2]; [3]", "value": "−9.7", "unit": "%"}, {"measurement": "GTP-r-S (reading)", "setting": "[2]; [3]", "value": 348}, {"measurement": "% M", "setting": "[2]; Buffer with 0.01% CHAPS, 5 nM", "value": 10.2, "unit": "%"}, {"measurement": "close", "setting": "[2]; Buffer with 0.01% CHAPS, 5 nM", "value": 1318}, {"measurement": "open", "setting": "[2]; Buffer with 0.01% CHAPS, 5 nM", "value": 1214}, {"measurement": "% I", "setting": "[2]; Buffer with 0.01% CHAPS, 5 nM", "value": "−8.6", "unit": "%"}, {"measurement": "GTP-r-S (reading)", "setting": "[2]; Buffer with 0.01% CHAPS, 5 nM", "value": 1468}, {"measurement": "% M", "setting": "[2]; Buffer with 0.01% CHAPS, 10 nM", "value": 6.1, "unit": "%"}, {"measurement": "close", "setting": "[2]; Buffer with 0.01% CHAPS, 10 nM", "value": 3265}, {"measurement": "open", "setting": "[2]; Buffer with 0.01% CHAPS, 10 nM", "value": 2971}, {"measurement": "% I", "setting": "[2]; Buffer with 0.01% CHAPS, 10 nM", "value": "−9.9", "unit": "%"}, {"measurement": "GTP-r-S (reading)", "setting": "[2]; Buffer with 0.01% CHAPS, 10 nM", "value": 3478}, {"measurement": "% M", "setting": "[2]; Buffer with 0.01% CHAPS, 25 nM", "value": "−1.4", "unit": "%"}, {"measurement": "close", "setting": "[2]; Buffer with 0.01% CHAPS, 25 nM", "value": 10782}, {"measurement": "open", "setting": "[2]; Buffer with 0.01% CHAPS, 25 nM", "value": 8526}, {"measurement": "% I", "setting": "[2]; Buffer with 0.01% CHAPS, 25 nM", "value": "−26.5", "unit": "%"}, {"measurement": "GTP-r-S (reading)", "setting": "[2]; Buffer with 0.01% CHAPS, 25 nM", "value": 10634}, {"measurement": "% M", "setting": "[2]; Buffer with 0.01% CHAPS, 50 nM", "value": 4.5, "unit": "%"}, {"measurement": "close", "setting": "[2]; Buffer with 0.01% CHAPS, 50 nM", "value": 18587}, {"measurement": "open", "setting": "[2]; Buffer with 0.01% CHAPS, 50 nM", "value": 17367}, {"measurement": "% I", "setting": "[2]; Buffer with 0.01% CHAPS, 50 nM", "value": "−7.0", "unit": "%"}, {"measurement": "GTP-r-S (reading)", "setting": "[2]; Buffer with 0.01% CHAPS, 50 nM", "value": 19466}, {"measurement": "% M", "setting": "[2]; [4]", "value": 19.6, "unit": "%"}, {"measurement": "close", "setting": "[2]; [4]", "value": 228}, {"measurement": "open", "setting": "[2]; [4]", "value": 215}, {"measurement": "% I", "setting": "[2]; [4]", "value": "−6.4", "unit": "%"}, {"measurement": "GTP-r-S (reading)", "setting": "[2]; [4]", "value": 284}, {"measurement": "% M", "setting": "[2]; [5]", "value": 20.2, "unit": "%"}, {"measurement": "close", "setting": "[2]; [5]", "value": 827}, {"measurement": "open", "setting": "[2]; [5]", "value": 763}, {"measurement": "% I", "setting": "[2]; [5]", "value": "−8.3", "unit": "%"}, {"measurement": "GTP-r-S (reading)", "setting": "[2]; [5]", "value": 1035}, {"measurement": "% M", "setting": "[2]; [6]", "value": 11.6, "unit": "%"}, {"measurement": "close", "setting": "[2]; [6]", "value": 2220}, {"measurement": "open", "setting": "[2]; [6]", "value": 2103}, {"measurement": "% I", "setting": "[2]; [6]", "value": "−5.6", "unit": "%"}, {"measurement": "GTP-r-S (reading)", "setting": "[2]; [6]", "value": 2510}, {"measurement": "% M", "setting": "[2]; [7]", "value": 10.5, "unit": "%"}, {"measurement": "close", "setting": "[2]; [7]", "value": 6971}, {"measurement": "open", "setting": "[2]; [7]", "value": 6600}, {"measurement": "% I", "setting": "[2]; [7]", "value": "−5.6", "unit": "%"}, {"measurement": "GTP-r-S (reading)", "setting": "[2]; [7]", "value": 7790}, {"measurement": "% M", "setting": "[2]; [8]", "value": 8.9, "unit": "%"}, {"measurement": "close", "setting": "[2]; [8]", "value": 13597}, {"measurement": "open", "setting": "[2]; [8]", "value": 13133}, {"measurement": "% I", "setting": "[2]; [8]", "value": "−3.5", "unit": "%"}, {"measurement": "GTP-r-S (reading)", "setting": "[2]; [8]", "value": 14932}]}]}
